Source: patent US6509356B1, “1-(4-(Substituted alkoxy)benzyl)naphthalene compounds having estrogen inhibitory activity” (Eli Lilly and Company, priority 1997, dated 2003)
Counter-ions that a name gives are not always drawn.

What follows are compounds tested on MCF-7 breast adenocarcinoma cells (assay: MCF-7 Proliferation Assay (tritiated thymidine incorporation)). Details: Homo sapiens, MCF7; MCF-7 cells (ATCC HTB 22) in DCC-FBS assay medium, 48 hours with drug, then tritiated thymidine pulse for 4 hours; read-out: Inhibition of MCF7 cell proliferation: ED50.
Format: cell-based
From the text: Biological Activity of the Compounds of the Present Invention—MCF-7 Proliferation Assay
The data reported in each of the Examples given above for inhibition of MCF-7 cell proliferation were obtained in an assay which determined each compound's ability to inhibit the proliferation of MCF-7 breast adenocarcinoma cells.
In the assay, these cells (ATCC HTB 22) are maintained in minimal essential medium, phenol red-free, (Sigma, St. Louis, Mo.) supplemented with 10% (V/V) fetal bovine serum (FBS), L-glutamine (2 mM), sodium pyruvate (1 mM), HEPES {(N-[2-hydroxyethyl]piperazine-N′-[2-ethanesulfonic acid] 10 mM}, non-essential amino acids and bovine insulin (1 ug/mL) (maintenance medium). Ten days prior to assay, MCF-7 cells are switched to maintenance medium supplemented with 10% dextran coated charcoal stripped fetal bovine serum (DCC-FBS) assay medium) in place of 10% FBS to deplete internal stores of steroids. MCF-7 cells are removed from maintenance flasks using cell dissociation medium (Ca++/Mg++ free HBSS (phenol red-free) supplemented with 10 mM HEPES and 2 mM EDTA). Cells are washed twice with assay medium and adjusted to 80,000 cells/mL. Approximately […] (8,000 cells) are added to flat-bottom microculture wells (Costar 3596) and incubated at 37° C. in a 5% CO2 humidified incubator for 48 hours to allow for cell adherence and equilibration after transfer. Serial dilutions of drugs or DMSO as a diluent control are prepared in assay medium and […] to triplicate microcultures followed by […] assay medium for a final volume of […]. After an additional 48 hours at 37° C. in a 5% CO2 humidified incubator, microcultures are pulsed with tritiated thymidine (1 uCi/well) for 4 hours. Cultures are terminated by freezing at −70° C. for 24 hours followed by thawing and harvesting of microcultures using a Skatron Semiautomatic Cell Harvester. Samples are counted by liquid scintillation using a Wallac BetaPlace β counter.

Row | EC50 | SMILES
1 | 0.5 nM | CN1CCCC1COc1ccc(Cc2c(-c3ccc(O)cc3)ccc3cc(O)ccc23)cc1 (centres unmarked) [Example 1, 6-Hydroxy-2-(4-hydroxyphenyl)-1-[4-(N-methylpyrrolidin-2-yl)methoxy-benzyl]naphthalene hydrochloride]
2 | 0.9 nM | CCN(CC)CCCOc1ccc(Cc2c(-c3ccc(O)cc3)ccc3cc(O)ccc23)cc1 [Example 2, 6-Hydroxy-2-(4-hydroxyphenyl)-1-[4-(3-(N,N-diethylamino)-propoxy)benzyl]naphthalene hydrochloride]
3 | 2 nM | CC(C)N(CCOc1ccc(Cc2c(-c3ccc(O)cc3)ccc3cc(O)ccc23)cc1)C(C)C [Example 3, 6-hydroxy-2-(4-hydroxyphenyl)-1-[4-(2-(N,N-diisopropyl-amino)ethoxy)benzyl]naphthalene hydrochloride]
4 | 2 nM | CN1CCCCC1COc1ccc(Cc2c(-c3ccc(O)cc3)ccc3cc(O)ccc23)cc1 (centres unmarked) [Example 4, 6-hydroxy-2-(4-hydroxyphenyl)-1-[4-(N-methylpiperidin-2-yl)-methoxybenzyl]naphthalene hydrochloride]
5 | 2 nM | CN1CCCC(COc2ccc(Cc3c(-c4ccc(O)cc4)ccc4cc(O)ccc34)cc2)C1 (centres unmarked) [Example 5, 6-hydroxy-2-(4-hydroxyphenyl)-1-[4-(N-methylpiperidin-3-yl)-methoxybenzyl]naphthalene hydrochloride]
6 | 2 nM | CCCCN(CCCC)CCOc1ccc(Cc2c(-c3ccc(O)cc3)ccc3cc(O)ccc23)cc1 [Example 6, 6-hydroxy-2-(4-hydroxyphenyl)-1-[4-(2-(N,N-di-n-butylamino)-ethoxy)benzyl]naphthalene hydrochloride]
7 | 4 nM | CCCCN(CCCC)CCCOc1ccc(Cc2c(-c3ccc(O)cc3)ccc3cc(O)ccc23)cc1 [Example 7, 6-hydroxy-2-(4-hydroxyphenyl)-1-[4-(3-(N,N-di-n-butylamino)-propoxy)benzyl]naphthalene hydrochloride]
8 | 4 nM | CC(=O)c1ccc(N2CCN(CCOc3ccc(Cc4c(-c5ccc(O)cc5)ccc5cc(O)ccc45)cc3)CC2)cc1 [Example 8, 6-hydroxy-2-(4-hydroxyphenyl)-1-[4-(2-(4-(4-acetylphenyl)piperazin-1-yl)ethoxy)benzyl]-naphthalene dihydrochloride]
9 | 9 nM | Oc1ccc(-c2ccc3cc(O)ccc3c2Cc2ccc(OCCCNc3cccc4ccccc34)cc2)cc1 [Example 9, 6-hydroxy-2-(4-hydroxyphenyl)-1-[4-(3-(naphth-1-ylamino)propoxy)benzyl]naphthalene hydrochloride]
10 | 10 nM | CCN(CCOc1ccc(Cc2c(-c3ccc(O)cc3)ccc3cc(O)ccc23)cc1)C(=O)Nc1cc(Cl)ccc1C [Example 11, N-ethyl-N-[4-(2-(6-hydroxy-2-(4-hydroxyphenyl)naphth-1-yl-methyl)phenoxy)ethyl]-N′-5-chloro-2-methylphenyl urea]
11 | 20 nM | CC1CN(CCOc2ccc(Cc3c(-c4ccc(O)cc4)ccc4cc(O)ccc34)cc2)CC(C)O1 (centres unmarked) [Example 13, 6-hydroxy-2-(4-hydroxyphenyl)-1-[4-(2-(2,6-dimethylmorpholin-4-yl)ethoxy)benzyl]naphthalene hydrochloride]
12 | 30 nM | Oc1ccc(-c2ccc3cc(O)ccc3c2Cc2ccc(OCCCN3CCC4(CCCCC4)CC3)cc2)cc1 [Example 14, hydrochloride]
13 | 40 nM | O=C1CCCN1CCOc1ccc(Cc2c(-c3ccc(O)cc3)ccc3cc(O)ccc23)cc1 [Example 15, 6-hydroxy-2-(4-hydroxyphenyl)-1-[4-(2-(pyrollidinon-1-yl)ethoxy)benzyl]naphthalene]
14 | 30 nM | O=C1CCCN1CCCOc1ccc(Cc2c(-c3ccc(O)cc3)ccc3cc(O)ccc23)cc1 [Example 16, 6-hydroxy-2-(4-hydroxyphenyl)-1-[4-(3-(pyrollidinon-1-yl)propoxy)benzyl]naphthalene]
